PubChem BioAssay AID1963825 (Molecular Pharmacology Branch, DTP, NCI, 2024)

Test: Anticancer human tumor 997537-175-T-J1-PDC patient-derived colon adenocarcinoma cell line growth inhibition [POLQ]
Conditions: 997537-175-T-J1-PDC complex spheroid viability, combination with POLQ inhibitors; for IC50: curve of first compound; for viability, T/C: stronger effect = lower value
Summary of the method: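 Growth inhibition in 3D: complex spheroids (tumor PDC, HUVEC, MSC) treated with POLQ inhibitor combinations; where Cmax unknown, highest tested concentration 10 microM, except SN-38 at 1 microM.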
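Further: luminescence signal used as a surrogate for viable cells; spheroids exposed to drugs for seven days before readout.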

CC(=O)O[C@H]1C(=O)[C@@]2(C)[C@H]([C@H](OC(=O)c3ccccc3)[C@]3(O)C[C@H](OC(=O)[C@H](O)[C@@H](NC(=O)c4ccccc4)c4ccccc4)C(C)=C1C3(C)C)[C@]1(OC(C)=O)CO[C@@H]1C[C@@H]2O + COC1C(OC(N)=O)C(O)C(Oc2ccc3c(O)c(NC(=O)c4ccc(O)c(CC=C(C)C)c4)c(=O)oc3c2C)OC1(C)C
IC50 (second compound 0.0316 µM): 18.6 nM
IC50 (second compound 0.1 µM): < 9.49 nM
IC50 (second compound 0.316 µM): 82.6 nM
IC50 (second compound 1 µM): 16.5 nM
IC50 (second compound 3.16 µM): 14.6 nM
IC50 (second compound 10 µM): 17 nM
viability, T/C (second compound 0.0316 µM, first compound 0.00949 µM): 65.5%
viability, T/C (second compound 0.0316 µM, first compound 0.03 µM): 41.5%
viability, T/C (second compound 0.0316 µM, first compound 0.0949 µM): 24.5%
viability, T/C (second compound 0.0316 µM, first compound 0.3 µM): 41.6%
viability, T/C (second compound 0.0316 µM, first compound 0.949 µM): 23.9%
viability, T/C (second compound 0.0316 µM, first compound 3 µM): 42%
viability, T/C (second compound 0.1 µM, first compound 0.00949 µM): 46.6%
viability, T/C (second compound 0.1 µM, first compound 0.03 µM): 41%
viability, T/C (second compound 0.1 µM, first compound 0.0949 µM): 23.9%
viability, T/C (second compound 0.1 µM, first compound 0.3 µM): 44.9%
viability, T/C (second compound 0.1 µM, first compound 0.949 µM): 21.9%
viability, T/C (second compound 0.1 µM, first compound 3 µM): 28.1%
viability, T/C (second compound 0.316 µM, first compound 0.00949 µM): 70.7%
viability, T/C (second compound 0.316 µM, first compound 0.03 µM): 60.1%
viability, T/C (second compound 0.316 µM, first compound 0.0949 µM): 34.6%
viability, T/C (second compound 0.316 µM, first compound 0.3 µM): 50.9%
viability, T/C (second compound 0.316 µM, first compound 0.949 µM): 34%
viability, T/C (second compound 0.316 µM, first compound 3 µM): 18.2%
viability, T/C (second compound 1 µM, first compound 0.00949 µM): 66.9%
viability, T/C (second compound 1 µM, first compound 0.03 µM): 32.5%
viability, T/C (second compound 1 µM, first compound 0.0949 µM): 22.9%
viability, T/C (second compound 1 µM, first compound 0.3 µM): 29.6%
viability, T/C (second compound 1 µM, first compound 0.949 µM): 29.9%
viability, T/C (second compound 1 µM, first compound 3 µM): 35.3%
viability, T/C (second compound 3.16 µM, first compound 0.00949 µM): 61.8%
viability, T/C (second compound 3.16 µM, first compound 0.03 µM): 24.9%
viability, T/C (second compound 3.16 µM, first compound 0.0949 µM): 22.7%
viability, T/C (second compound 3.16 µM, first compound 0.3 µM): 30.7%
viability, T/C (second compound 3.16 µM, first compound 0.949 µM): 44%
viability, T/C (second compound 3.16 µM, first compound 3 µM): 28.1%
viability, T/C (second compound 10 µM, first compound 0.00949 µM): 67.2%
viability, T/C (second compound 10 µM, first compound 0.03 µM): 27%
viability, T/C (second compound 10 µM, first compound 0.0949 µM): 35.5%
viability, T/C (second compound 10 µM, first compound 0.3 µM): 40.1%
viability, T/C (second compound 10 µM, first compound 0.949 µM): 27.4%
viability, T/C (second compound 10 µM, first compound 3 µM): 35.6%
